What all share (assay): NCI tumour cell line growth inhibition, 48 h
For experiment [1], the system named is HOP-18 NSCLC.
Experiment [2] has as its system KM20L2 colon.
Experiment [3] concerns SNB-78 CNS.
For experiment [4], the system named is DMS 273 small cell lung.
The subject of experiment [5] is LXFL 529 NSCLC.
Experiment [6] has as its system XF 498 CNS.
Experiment [7] concerns DMS 114 small cell lung.
Experiment [8] relates to RXF-631 renal.

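The compound was tested at five concentrations on cells cultured in 96-well plates, with a 48-hour exposure period. TGI is the concentration that stops growth completely.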

As for `COc1cc2c(c(OC(C)=O)c1OC(C)=O)-c1ccc(SC)c(=O)cc1C(NC(C)=O)CC2` (configuration not stated), the TGI was more than 100 µM in experiment [1]; 10.4 µM in experiment [2]; more than 100 µM in experiment [3]; more than 100 µM in experiment [4]; more than 82.3 µM in experiment [5]; 42.4 µM in experiment [6]. Moreover, the TGI in experiment [7] is 6.11 µM.

In the case of `CC(=O)N/C(=C\c1ccc(/C=C(\NC(C)=O)C2=NC3C(=O)c4ccccc4C(=O)C3N2)cc1)C1=NC2C(=O)c3ccccc3C(=O)C2N1` (configuration not stated), the TGI in experiment [1], in experiment [2], in experiment [3], in experiment [8], in experiment [4] and in experiment [5] was more than 100 µM each time. Besides, the TGI in experiment [6] and in experiment [7] was more than 100 µM each time.

Take `[O-][n+]1c(-c2ccccc2)c2nc3ccccc3nc2c2ccccc21`: the TGI in experiment [2] is more than 100 µM; in experiment [3] it was 92.4 µM; in experiment [8], more than 100 µM; in experiment [4], more than 100 µM; in experiment [5], 93.9 µM; in experiment [6] it was more than 100 µM. Besides, the TGI in experiment [7] is more than 100 µM.

Turning to `CCN(CC)CCNc1ccc2nnn3c4ccccc4c(=O)c1c23`, the TGI in experiment [2] stood at 15.1 µM; in experiment [8] it was 13.7 µM; in experiment [4], 14.3 µM; in experiment [5], 21.8 µM; in experiment [6] it was 13.6 µM; in experiment [7], 24.2 µM.

With `Cc1c2c(ccc3ccccc32)c[n+]2ccccc12`, the TGI is 77 µM in experiment [2], 28.5 µM in experiment [4], 28.3 µM in experiment [5] and 19.8 µM in experiment [7].

The values are drawn from PubChem BioAssay (NCI).
